The experiment deals with T1, human PKCθ full length enzyme (Homo sapiens, UniProt Q04759).
T1 construct: human PKCθ full length enzyme (Panvera Catalog No. P2996); purchased Panvera P2996
Nature of the experiment: PKCθ IMAP Assay. Particulars: average value when one or more samples were tested; ATP 6 uM, PKCθ 1 nM. In kind it is biochemical. The method, then:
The materials used include the following: human PKCθ full length enzyme (Panvera Catalog No. P2996); substrate peptide: 5FAM-[…]-OH (Molecular Devices, RP7032); ATP (Sigma Cat # A2383); DTT (Pierce, 20291); 5× kinase reaction buffer (Molecular Devices, R7209); 5× binding buffer A (Molecular Devices, R7282), 5× binding buffer B (Molecular Devices, R7209); IMAP Beads (Molecular Devices, R7284); and 384-well plates (Corning Costar, 3710).
The reaction buffer was prepared by diluting the 5× stock reaction buffer and adding DTT to obtain a concentration of 3.0 mM. The binding buffer was prepared by diluting the 5× binding buffer A. A master mix solution was prepared using a 90% dilution of the reaction buffer containing 2×ATP (12 uM) and 2× peptide ([…]). […] The final concentration of compound was 2× and 10% DMSO. DMSO was added to the rest of the master mix to increase the concentration to 10%. 10 ul of the master mix containing 10% DMSO was added to the rest of the wells on the plate except the 2nd column. 20 ul was transferred from the first column to the 2nd column. The compounds were serially diluted in 2:1 ratio starting from the 2nd column. A 2× (2 nM) PKCθ solution was made in the reaction buffer. 10 ul of the PKCθ solution was added to every well to achieve these final concentrations: PKCθ—1 nM; ATP—6 uM; peptide—100 nM; DMSO—5%. Samples were incubated for 25 minutes at room temperature. The binding reagent was prepared by diluting the beads in 1× binding buffer to 800:1. 50 ul of the binding reagent was added to every well and incubated for 20 minutes. FP was measured using Envision2100 (PerkinElmer Life Sciences). Wells with no ATPs and wells with no enzymes were used as controls.

Among the data in patent US20070082880A1 (priority 2005, published 2007) are IC50 values, retold here.

T1 sequence (Q04759 whole entry): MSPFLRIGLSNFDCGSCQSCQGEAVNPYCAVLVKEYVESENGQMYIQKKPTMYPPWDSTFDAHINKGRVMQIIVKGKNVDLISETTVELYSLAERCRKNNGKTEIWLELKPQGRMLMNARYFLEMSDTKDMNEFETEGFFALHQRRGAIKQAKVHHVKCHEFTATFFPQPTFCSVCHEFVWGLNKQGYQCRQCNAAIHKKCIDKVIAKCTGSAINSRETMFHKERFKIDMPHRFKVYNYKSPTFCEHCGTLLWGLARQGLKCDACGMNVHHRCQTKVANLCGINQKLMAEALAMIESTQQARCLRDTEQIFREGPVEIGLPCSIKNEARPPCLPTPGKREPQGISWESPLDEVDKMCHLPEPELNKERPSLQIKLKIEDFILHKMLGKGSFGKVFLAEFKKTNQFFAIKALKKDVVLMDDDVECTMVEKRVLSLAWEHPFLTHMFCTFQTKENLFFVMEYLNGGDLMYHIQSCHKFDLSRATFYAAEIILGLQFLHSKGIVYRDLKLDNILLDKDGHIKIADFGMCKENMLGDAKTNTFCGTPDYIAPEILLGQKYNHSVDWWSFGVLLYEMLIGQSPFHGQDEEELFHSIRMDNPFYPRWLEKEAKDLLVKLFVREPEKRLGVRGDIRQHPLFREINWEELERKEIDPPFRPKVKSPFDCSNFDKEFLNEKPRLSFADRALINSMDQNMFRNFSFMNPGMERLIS

The term IC50 denotes the concentration at which inhibition is half-maximal. The low end stands for greater potency in that assay, the high end for weaker potency in that assay. `Cc1c(Nc2c(C#N)cnc3sc(/C=C/c4ccccc4)c(C)c23)ccc2[nH]ccc12` [Compound 425, 3-methyl-4-[(4-methyl-1H-indol-5-yl)amino]-2-[(E)-2-phenylvinyl]thieno[2,3-b]pyridine-5-carbonitrile]: inhibition was half-maximal at 0.095 µM (IC50). On to `CN1CCN(C(=O)/C=C/c2cc3c(Nc4ccc5[nH]ccc5c4)c(C#N)cnc3s2)CC1` [Compound 290, 4-(1H-indol-5-ylamino)-2-[(1E)-3-(4-methylpiperazin-1-yl)-3-oxoprop-1-en-1-yl]thieno[2,3-b]pyridine-5-carbonitrile], for which the half-inhibitory concentration (IC50) was determined as 0.33 µM. The same measure for `Cc1c(Nc2c(C#N)cnc3sc(-c4ccc(S(=O)(=O)N(C)C)cc4)cc23)ccc2[nH]ccc12` [Compound 236, 4-{5-cyano-4-[(4-methyl-1H-indol-5-yl)amino]thieno[2,3-b]pyridin-2-yl}-N,N-dimethylbenzenesulfonamide]: 0.02 µM; for `Cc1c(Nc2c(C#N)cnc3sc(-c4cnccn4)cc23)ccc2[nH]ccc12` [Compound 504, 4-[(4-methyl-1H-indol-5-yl)amino]-2-pyrazin-2-ylthieno[2,3-b]pyridine-5-carbonitrile]: 0.021 µM; for `CCOC(=O)c1cc2c(Nc3ccc4[nH]ccc4c3)c(C#N)cnc2s1` [Compound 502, ethyl 5-cyano-4-(1H-indol-5-ylamino)thieno[2,3-b]pyridine-2-carboxylate]: 1.1 µM. The compound `Cc1c(Nc2c(C#N)cnc3sc(C(=O)NCc4ccccc4)cc23)ccc2[nH]ccc12` [Compound 259, N-benzyl-5-cyano-4-[(4-methyl-1H-indol-5-yl)amino]thieno[2,3-b]pyridine-2-carboxamide] gave a half-maximal inhibitory concentration (IC50) of 0.155 µM. As for `CCOC(=O)/C=C/c1cc2c(Nc3ccc4[nH]ccc4c3C)c(C#N)cnc2s1` [Compound 282, ethyl (2E)-3-{5-cyano-4-[(4-methyl-1H-indol-5-yl)amino]thieno[2,3-b]pyridin-2-yl}acrylate], the half-maximal inhibitory concentration (IC50) was 0.023 µM. This IC50 is about 6.7-fold lower than that of the compound before. The compound `Cc1c(Nc2c(C#N)cnc3sc(-c4cccc(C=O)c4)cc23)ccc2[nH]ccc12` [Compound 201, 2-(3-formylphenyl)-4-[(4-methyl-1H-indol-5-yl)amino]thieno[2,3-b]pyridine-5-carbonitrile] showed an IC50 of 0.016 µM.

With `Cc1c(Nc2c(C#N)cnc3sc(-c4cccc(C(C)N(C)C)c4)cc23)ccc2[nH]ccc12` (stereo not shown) [Compound 347, 2-{3-[1-(dimethylamino)ethyl]phenyl}-4-[(4-methyl-1H-indol-5-yl)amino]thieno[2,3-b]pyridine-5-carbonitrile], half-maximal inhibition (IC50) required 0.013 µM. For `N#Cc1cnc2sc(-c3cccc(CN4CCCCC4CO)c3)cc2c1Nc1ccc2[nH]ccc2c1` (stereo not shown) [Compound 182], half-maximal inhibition (IC50) was put at 0.13 µM.

As to `N#Cc1cnc2sc(C3=CCNCC3)cc2c1Nc1cccc2[nH]ccc12` [Compound 473, 4-(1H-indol-4-ylamino)-2-(1,2,3,6-tetrahydropyridin-4-yl)thieno[2,3-b]pyridine-5-carbonitrile], the IC50 was determined as 0.143 µM. The same measure for `Cc1c(Nc2c(C#N)cnc3sc(-c4ccc(OC[C@H](O)CO)cc4)cc23)ccc2[nH]ccc12` [Compound 486, 2-(4-{[(2R)-2,3-dihydroxypropyl]-oxy}phenyl)-4-[(4-methyl-1H-indol-5-yl)amino]thieno[2,3-b]pyridine-5-carbonitrile]: 0.07 µM; for `N#Cc1cnc2sc(-c3ccc(S(=O)(=O)NCCO)cc3)cc2c1Nc1ccc2[nH]ccc2c1` [Compound 232, 4-[5-cyano-4-(1H-indol-5-ylamino)thieno[2,3-b]pyridin-2-yl]-N-(2-hydroxyethyl)benzenesulfonamide]: 0.34 µM; for `Cc1c(Nc2c(C#N)cnc3sc(/C=C/C(=O)Nc4ccncc4)cc23)ccc2[nH]ccc12` [Compound 304, (2E)-3-{5-cyano-4-[(4-methyl-1H-indol-5-yl)amino]thieno[2,3-b]pyridin-2-yl}-N-pyridin-4-ylacrylamide]: 0.043 µM.

With `Cc1c(Nc2c(C#N)cnc3sc(-c4cncnc4)cc23)ccc2[nH]ccc12` [Compound 506, 4-[(4-methyl-1H-indol-5-yl)amino]-2-pyrimidin-5-ylthieno[2,3-b]pyridine-5-carbonitrile], the IC50 worked out at 0.017 µM. Turning to `Cc1c(Nc2c(C#N)cnc3sc(/C=C/c4ccccc4)cc23)ccc2[nH]ccc12` [Compound 416, 4-[(4-methyl-1H-indol-5-yl)amino]-2-[(E)-2-phenylvinyl]thieno[2,3-b]pyridine-5-carbonitrile], 0.034 µM corresponded to half-maximal inhibition (IC50). Take `CN(C)Cc1cccc(-c2cc3c(Nc4cnc5[nH]ccc5c4Cl)c(C#N)cnc3s2)c1` [Compound 498, 4-(4-chloro-1H-pyrrolo[2,3-b]pyridin-5-ylamino)-2-(3-((dimethylamino)methyl)phenyl)thieno[2,3-b]pyridine-5-carbonitrile]: the half-inhibitory concentration (IC50) was determined as 0.003 µM. `Cc1c(Nc2c(C#N)cnc3sc(-c4ccccc4O)cc23)ccc2[nH]ccc12` [Compound 442, 2-(2-hydroxyphenyl)-4-[(4-methyl-1H-indol-5-yl)amino]thieno[2,3-b]pyridine-5-carbonitrile] had an IC50 of 0.273 µM. The compound `N#Cc1cnc2sc(-c3csc(CN4CCC[C@H]4CO)c3)cc2c1Nc1ccc2[nH]ccc2c1` [Compound 158, 2-(5-{[(2S)-2-(hydroxymethyl)pyrrolidin-1-yl]methyl}-3-thienyl)-4-(1H-indol-5-ylamino)thieno[2,3-b]pyridine-5-carbonitrile] gave an IC50 of 0.057 µM. The figure for `Cc1c(Nc2c(C#N)cnc3sc(C(=O)NCCc4ccccc4)cc23)ccc2[nH]ccc12` [Compound 260, 5-cyano-4-[(4-methyl-1H-indol-5-yl)amino]-N-(2-phenylethyl)thieno[2,3-b]pyridine-2-carboxamide] is 0.187 µM. Compound `N#Cc1c[n+]([O-])c2sccc2c1Nc1ccc2[nH]ccc2c1` [Compound 499, 4-(1H-indol-5-ylamino)thieno[2,3-b]pyridine-5-carbonitrile-7-oxide] came in with an IC50 of 1.32 µM. For the compound `Cc1c(Nc2c(C#N)cnc3sc(/C=C/CN4CCOCC4)cc23)ccc2[nH]ccc12` [Compound 275, 4-[(4-methyl-1H-indol-5-yl)amino]-2-[(1E)-3-morpholin-4-ylprop-1-en-1-yl]thieno[2,3-b]pyridine-5-carbonitrile], inhibition was half-maximal at 0.056 µM (IC50). The compound `CN(C)Cc1cc(-c2cc3c(Nc4ccc5[nH]ccc5c4)c(C#N)cnc3s2)co1` [Compound 154, 2-{5-[(dimethylamino)methyl]-3-furyl}-4-(1H-indol-5-ylamino)thieno[2,3-b]pyridine-5-carbonitrile] came in with an IC50 of 0.18 µM. The compound `CN(C)Cc1ccc2sc(-c3cc4c(Nc5ccc6[nH]ccc6c5)c(C#N)cnc4s3)cc2c1` [Compound 465, 2-{5-[(dimethylamino)methyl]-1-benzothien-2-yl}-4-(1H-indol-5-ylamino)thieno[2,3-b]pyridine-5-carbonitrile] had an IC50 of 0.049 µM. In turn, `Cc1c(Nc2c(C#N)cnc3sc(-c4cccc(O)c4)cc23)ccc2[nH]ccc12` [Compound 437, 2-(3-hydroxyphenyl)-4-[(4-methyl-1H-indol-5-yl)amino]thieno[2,3-b]pyridine-5-carbonitrile] had an IC50 of 0.011 µM. `CC(=O)Nc1ccccc1-c1cc2c(Nc3ccc4[nH]ccc4c3C)c(C#N)cnc2s1` [Compound 435, N-(2-{5-cyano-4-[(4-methyl-1H-indol-5-yl)amino]thieno[2,3-b]pyridin-2-yl}phenyl)acetamide] returned an IC50 of 0.282 µM. For the compound `Cc1c(Nc2c(C#N)cnc3sc(C4=CCCCC4)cc23)ccc2[nH]ccc12` [Compound 421, 2-cyclohex-1-en-1-yl-4-[(4-methyl-1H-indol-5-yl)amino]thieno[2,3-b]pyridine-5-carbonitrile], the 50% inhibitory concentration (IC50) is 0.324 µM. The figure for `Cc1c(Nc2c(C#N)cnc3sc(-c4cc5ccccc5[nH]4)cc23)ccc2[nH]ccc12` [Compound 434, 2-(1H-indol-2-yl)-4-[(4-methyl-1H-indol-5-yl)amino]thieno[2,3-b]pyridine-5-carbonitrile] is 0.07 µM. In the case of `CN(C)Cc1cccc(C#Cc2cc3c(Nc4cccc5[nH]ccc45)c(C#N)cnc3s2)n1` [Compound 219, 2-({6-[(dimethylamino)methyl]pyridin-2-yl}ethynyl)-4-(1H-indol-4-ylamino)thieno[2,3-b]pyridine-5-carbonitrile], the IC50 worked out at 0.084 µM. `Cc1c(Nc2c(C#N)cnc3sc(-c4ccc(S(=O)(=O)NCCO)cc4)c(C)c23)ccc2[nH]ccc12` [Compound 431, 4-{5-cyano-3-methyl-4-[(4-methyl-1H-indol-5-yl)amino]thieno[2,3-b]pyridin-2-yl}-N-(2-hydroxyethyl)benzenesulfonamide] registered an IC50 of 0.11 µM.

In turn, `Cc1c(Nc2c(C#N)cnc3sc(C4=CCN(Cc5ccccc5)CC4)cc23)ccc2[nH]ccc12` [Compound 476, 2-(1-benzyl-1,2,3,6-tetrahydropyridin-4-yl)-4-[(4-methyl-1H-indol-5-yl)amino]thieno[2,3-b]pyridine-5-carbonitrile] registered an IC50 of 0.153 µM.
